Laboratory results reported in patent US11286228B2, “Stilbene derivative and method for preparing same” (Ozchela Inc., priority 2016, dated 2022).

Molecular target: cyclophilin
Assay: Cis-trans isomerase inhibitory activity (chymotrypsin-coupled Suc-AAPF-pNA cleavage, absorbance 390 nm)
Type: biochemical
Conditions: cyclophilin, chymotrypsin, Suc-AAPF-pNA; read-out: Test Example 1: cis-trans isomerase inhibitory activity (IC50)
Source text: Chymotrypsin cleaves a trans-type alanine-proline peptide bond. When Suc-AAPF-pNA (a peptide substrate) and chymotrypsin are mixed, the trans-type peptide substrate is cleaved and the cis-type peptide substrate remains. The remaining cis-type peptide substrate is converted into a trans form by a cis-trans isomerase and is then cleaved again by chymotrypsin. When the cis-trans isomerase is present, chymotrypsin is able to cleave a larger amount of trans-type peptide substrate within a predetermined period of time, from which the activity of the cis-trans isomerase may be determined. The amount of the cleaved trans-type peptide substrate is measured using absorbance at 390 nm. Cyclophilin has cis-trans isomerase activity, and accelerates the cleavage of trans-type peptide substrate by chymotrypsin. When the stilbene derivatives of the present invention were treated together with cyclophilin, the cleavage of the peptide substrate by chymotrypsin was not observed to accelerate. Thereby, the stilbene derivatives of the invention can be concluded to inhibit the activity of cyclophilin.

| SMILES | IC50 |
| --- | --- |
| CCC(C)Oc1ccccc1C=C(C#N)c1ccc([N+](=O)[O-])cc1 (stereo not drawn) [Compound 26] | 200 to 2000 nM |
| CC(C)(C)Cc1ccc(C(I)=Cc2ccccc2C(=O)OCC2CCCCC2)cc1 [Compound 119] | ≤ 20 nM |
| CCCCOC(=O)c1ccccc1C=Cc1ccc(CC(C)CC)cc1 (stereo not drawn) [Compound 78] | 20 to 200 nM |
| CCCCCc1ccc(C=Cc2ccccc2C(=O)OCCCC)cc1 [Compound 132] | ≤ 20 nM |
| CCCCOC(=O)c1c(C)cccc1C=C(C)c1ccc(CC(C)(C)C)cc1 [Compound 83] | 20 to 200 nM |
| CCCCCOC(=O)c1ccccc1C=C(N)c1ccc(CC(C)(C)C)cc1 [Compound 103] | 20 to 200 nM |
| CCCCOC(=O)c1ccccc1C=Cc1ccc(CC(C)C)cc1 [Compound 131] | ≤ 20 nM |
| CC(C)(C)CCc1ccc(C(C#N)=Cc2ccccc2C(=O)O)cc1 [Compound 57] | ≤ 20 nM |
| N#CC(=Cc1ccccc1CCc1ccc(N)cc1)c1ccc([N+](=O)[O-])cc1 [Compound 53] | 20 to 200 nM |
| CCCCOC(=O)c1ccccc1C=Cc1ccc(Cc2ccccc2)cc1 [Compound 81] | 20 to 200 nM |
| COC(=O)c1ccccc1C=Cc1ccc(CC(C)(C)C)cc1 [Compound 124] | ≤ 20 nM |
| COC(=O)c1ccccc1C=Cc1ccc(CC2CCCC2)cc1 [Compound 126] | 20 to 200 nM |
| Cc1ccc(C=Cc2ccc(CC(C)(C)C)cc2)c(C(=O)O)c1 [Compound 140] | ≤ 20 nM |
| CCCCOc1ccc(C(C#N)=Cc2ccccc2C(=O)O)cc1 [Compound 19] | 20 to 200 nM |
| CC(C)(C)Cc1ccc(C(N)=Cc2ccccc2C(=O)OCc2ccccc2)cc1 [Compound 106] | 20 to 200 nM |
| CC(C)(Cc1ccc(C(C#N)=Cc2ccccc2C(=O)O)cc1)CC1CC1 [Compound 63] | 20 to 200 nM |
| CCCOC(=O)c1ccccc1C=Cc1ccc(CC(C)(C)C)cc1 [Compound 71] | ≤ 20 nM |
| N#CC(=Cc1ccccc1CCC1CCCCC1)c1ccc([N+](=O)[O-])cc1 [Compound 39] | ≤ 20 nM |
| N#CC(=Cc1ccccc1C(=O)O)c1ccc(Cc2ccccc2)cc1 [Compound 21] | ≤ 20 nM |
| CCCCOC(=O)c1cc(C)ccc1C=C(C)c1ccc(CC(C)(C)C)cc1 [Compound 85] | 20 to 200 nM |
| N#CC(=Cc1ccccc1C(=O)O)c1ccc(CC2CC2)cc1 [Compound 61] | ≤ 20 nM |
| COc1ccccc1C=C(C#N)c1ccc(C(C)(C)C)cc1 [Compound 11] | 200 to 2000 nM |
| CC(C)(C)Cc1ccccc1C=C(C#N)c1ccc([N+](=O)[O-])cc1 [Compound 35] | 20 to 200 nM |

Same assay, conditions: read-out: Test Example 1: cis-trans isomerase inhibitory activity (IC50) group

| SMILES | IC50 |
| --- | --- |
| CC(C)(C)Cc1ccc(C=Cc2c(O)cccc2C(=O)O)cc1 [Compound 150] | ≤ 20 nM |

Test system: mitochondria obtained from hepatocytes
Assay: Inhibitory activity on calcium-induced mitochondrial swelling (absorbance 520 nm)
Conditions: Hepatocyte; calcium-induced swelling of extracted mitochondria; read-out: Test Example 4: inhibiting mitochondrial swelling (IC50)
Source text: Cyclophilin is a key protein for forming permeability transition pores (PTP) in mitochondria. When permeability transition pores are formed, mitochondria swell, whereby the outer membrane thereof ruptures and thus cell death progresses. Such mitochondrial dysfunction causes many diseases including neurodegenerative diseases, cancer, and the like. Cyclosporine, a known cyclophilin inhibitor, is capable of preventing the formation of permeability transition pores to thus suppress mitochondrial swelling.
The mitochondrial swelling test was performed as follows. Specifically, the hepatocytes were disrupted using a Dounce tissue grinder. The disrupted cells were centrifuged at 700×g for 10 min and the supernatant was transferred into a new tube. The supernatant was centrifuged at 12,000×g for 15 min, thereby obtaining mitochondria.
When the extracted mitochondria were added with calcium, they swelled, which may be observed by measuring the absorbance at 520 nm. The stilbene derivatives are effective at inhibiting mitochondrial swelling due to calcium.
The activity of Compounds 1 to 155 of Tables 1 to 10 on inhibiting mitochondrial swelling may be determined based on IC50 values, and may be grouped as follows: […]

| SMILES | IC50 |
| --- | --- |
| CCC(C)Oc1ccccc1C=C(C#N)c1ccc([N+](=O)[O-])cc1 (stereo not drawn) [Compound 26] | 50 to 500 µM |
| CC(C)(C)Cc1ccc(C(I)=Cc2ccccc2C(=O)OCC2CCCCC2)cc1 [Compound 119] | < 5 µM |
| CCCCOC(=O)c1ccccc1C=Cc1ccc(CC(C)CC)cc1 (stereo not drawn) [Compound 78] | 5 to 50 µM |
| CCCCCc1ccc(C=Cc2ccccc2C(=O)OCCCC)cc1 [Compound 132] | < 5 µM |
| CCCCOC(=O)c1c(C)cccc1C=C(C)c1ccc(CC(C)(C)C)cc1 [Compound 83] | 5 to 50 µM |
| CCCCCOC(=O)c1ccccc1C=C(N)c1ccc(CC(C)(C)C)cc1 [Compound 103] | 5 to 50 µM |
| CCCCOC(=O)c1ccccc1C=Cc1ccc(CC(C)C)cc1 [Compound 131] | < 5 µM |
| CC(C)(C)CCc1ccc(C(C#N)=Cc2ccccc2C(=O)O)cc1 [Compound 57] | < 5 µM |
| N#CC(=Cc1ccccc1CCc1ccc(N)cc1)c1ccc([N+](=O)[O-])cc1 [Compound 53] | 5 to 50 µM |
| CCCCOC(=O)c1ccccc1C=Cc1ccc(Cc2ccccc2)cc1 [Compound 81] | 5 to 50 µM |
| COC(=O)c1ccccc1C=Cc1ccc(CC(C)(C)C)cc1 [Compound 124] | < 5 µM |
| COC(=O)c1ccccc1C=Cc1ccc(CC2CCCC2)cc1 [Compound 126] | 5 to 50 µM |
| Cc1ccc(C=Cc2ccc(CC(C)(C)C)cc2)c(C(=O)O)c1 [Compound 140] | < 5 µM |
| CC(C)(C)Cc1ccc(C(N)=Cc2ccccc2C(=O)OCc2ccccc2)cc1 [Compound 106] | 5 to 50 µM |
| CC(C)(Cc1ccc(C(C#N)=Cc2ccccc2C(=O)O)cc1)CC1CC1 [Compound 63] | 5 to 50 µM |
| CCCOC(=O)c1ccccc1C=Cc1ccc(CC(C)(C)C)cc1 [Compound 71] | < 5 µM |
| N#CC(=Cc1ccccc1CCC1CCCCC1)c1ccc([N+](=O)[O-])cc1 [Compound 39] | < 5 µM |
| CCCCOC(=O)c1cc(C)ccc1C=C(C)c1ccc(CC(C)(C)C)cc1 [Compound 85] | 5 to 50 µM |
| N#CC(=Cc1ccccc1C(=O)O)c1ccc(CC2CC2)cc1 [Compound 61] | < 5 µM |
| COc1ccccc1C=C(C#N)c1ccc(C(C)(C)C)cc1 [Compound 11] | 50 to 500 µM |
| CC(C)(C)Cc1ccccc1C=C(C#N)c1ccc([N+](=O)[O-])cc1 [Compound 35] | 5 to 50 µM |

Same assay, conditions: Hepatocyte; read-out: Test Example 4: activity on inhibiting mitochondrial swelling (IC50) group

| SMILES | IC50 |
| --- | --- |
| CC(C)(C)Cc1ccc(C=Cc2c(O)cccc2C(=O)O)cc1 [Compound 150] | < 5 µM |

Same assay, conditions: calcium-induced swelling of extracted mitochondria; read-out: Test Example 4: inhibiting mitochondrial swelling (IC50)

| SMILES | IC50 |
| --- | --- |
| CCCCOc1ccc(C(C#N)=Cc2ccccc2C(=O)O)cc1 [Compound 19] | 5 to 50 µM |
| N#CC(=Cc1ccccc1C(=O)O)c1ccc(Cc2ccccc2)cc1 [Compound 21] | < 5 µM |

Test system: hepatitis C virus
Assay: Antiviral activity in HCV replicon cells (Renilla luciferase)
Type: cell-based
Conditions: HCV replicon cells, 72 hr, Renilla luciferase, relative to DMSO; read-out: Test Example 3: antiviral activity (EC50)
Experimental: The antiviral activity of the stilbene derivatives on hepatitis C virus was measured. The replicon cells that stably replicate the hepatitis C virus genome were attached to a culture plate and cultured in a CO2 incubator at 37° C. for 24 hr. The replicon cells cultured for one day were washed with a PBS solution, treated with the compounds of the present invention, and then cultured for 72 hr. The stilbene derivative-treated replicon cells were washed with a cold PBS solution and added with 20 μL of a cell lysis solution so that the cells were lysed in ice for 20 min. 100 μL of a Renilla luciferase substrate was added thereto, after which the luminescence thereof was measured and thus the amount of the hepatitis C virus genome was estimated. The amount of the hepatitis C virus genome in the stilbene derivative-treated replicon cells according to the present invention relative to the amount of the hepatitis C virus genome in dimethylsulfoxide (DMSO)-treated replicon cells is shown.
Compounds 1 to 155 of Tables 1 to 10 may be grouped as follows based on the antiviral activity (EC50) values: […]

| SMILES | EC50 |
| --- | --- |
| CCCCOc1ccc(C(C#N)=Cc2ccccc2C(=O)O)cc1 [Compound 19] | 500 to 5000 nM |
| N#CC(=Cc1ccccc1C(=O)O)c1ccc(Cc2ccccc2)cc1 [Compound 21] | < 500 nM |

Same assay, conditions: Hepatitis C virus, 72 h, read-out: Test Example 3: antiviral activity (EC50)

| SMILES | EC50 |
| --- | --- |
| CCCCOC(=O)c1ccccc1C=Cc1ccc(Cc2ccccc2)cc1 [Compound 81] | 500 to 5000 nM |

Same assay, conditions: Hepatitis C virus; HCV replicon cells, 72 hr, Renilla luciferase, relative to DMSO; read-out: Test Example 3: antiviral activity (EC50)

| SMILES | EC50 |
| --- | --- |
| CCC(C)Oc1ccccc1C=C(C#N)c1ccc([N+](=O)[O-])cc1 (stereo not drawn) [Compound 26] | 5000 to 50000 nM |
| CC(C)(C)Cc1ccc(C(I)=Cc2ccccc2C(=O)OCC2CCCCC2)cc1 [Compound 119] | < 500 nM |
| CCCCOC(=O)c1ccccc1C=Cc1ccc(CC(C)CC)cc1 (stereo not drawn) [Compound 78] | 500 to 5000 nM |
| CCCCCc1ccc(C=Cc2ccccc2C(=O)OCCCC)cc1 [Compound 132] | < 500 nM |
| CCCCOC(=O)c1c(C)cccc1C=C(C)c1ccc(CC(C)(C)C)cc1 [Compound 83] | 500 to 5000 nM |
| CCCCCOC(=O)c1ccccc1C=C(N)c1ccc(CC(C)(C)C)cc1 [Compound 103] | 500 to 5000 nM |
| CCCCOC(=O)c1ccccc1C=Cc1ccc(CC(C)C)cc1 [Compound 131] | < 500 nM |
| CC(C)(C)CCc1ccc(C(C#N)=Cc2ccccc2C(=O)O)cc1 [Compound 57] | < 500 nM |
| N#CC(=Cc1ccccc1CCc1ccc(N)cc1)c1ccc([N+](=O)[O-])cc1 [Compound 53] | 500 to 5000 nM |
| COC(=O)c1ccccc1C=Cc1ccc(CC(C)(C)C)cc1 [Compound 124] | < 500 nM |
| COC(=O)c1ccccc1C=Cc1ccc(CC2CCCC2)cc1 [Compound 126] | 500 to 5000 nM |
| Cc1ccc(C=Cc2ccc(CC(C)(C)C)cc2)c(C(=O)O)c1 [Compound 140] | < 500 nM |
| CC(C)(C)Cc1ccc(C(N)=Cc2ccccc2C(=O)OCc2ccccc2)cc1 [Compound 106] | 500 to 5000 nM |
| CC(C)(Cc1ccc(C(C#N)=Cc2ccccc2C(=O)O)cc1)CC1CC1 [Compound 63] | 500 to 5000 nM |
| CCCOC(=O)c1ccccc1C=Cc1ccc(CC(C)(C)C)cc1 [Compound 71] | < 500 nM |
| N#CC(=Cc1ccccc1CCC1CCCCC1)c1ccc([N+](=O)[O-])cc1 [Compound 39] | < 500 nM |
| CCCCOC(=O)c1cc(C)ccc1C=C(C)c1ccc(CC(C)(C)C)cc1 [Compound 85] | 500 to 5000 nM |
| N#CC(=Cc1ccccc1C(=O)O)c1ccc(CC2CC2)cc1 [Compound 61] | < 500 nM |
| COc1ccccc1C=C(C#N)c1ccc(C(C)(C)C)cc1 [Compound 11] | 5000 to 50000 nM |
| CC(C)(C)Cc1ccccc1C=C(C#N)c1ccc([N+](=O)[O-])cc1 [Compound 35] | 500 to 5000 nM |

Same assay, conditions: Hepatitis C virus; HCV replicon cells; read-out: Test Example 3: antiviral activity (EC50) group

| SMILES | EC50 |
| --- | --- |
| CC(C)(C)Cc1ccc(C=Cc2c(O)cccc2C(=O)O)cc1 [Compound 150] | < 500 nM |
